Laboratory results reported in ChEMBL document CHEMBL1132268, “Non-thiol 3-aminomethylbenzamide inhibitors of farnesyl-protein transferase” (Bioorg Med Chem Lett, 1999).
Values after ≈ are worked out from the molar mass of the structure shown.

What was measured:
[1] = target: Protein farnesyltransferase (Homo sapiens, UniProt P49354+P49356); test: Inhibition of [3H]FPP incorporation into recombinant Ha-Ras by bovine brain farnesyltransferase; format: functional, Bos taurus
[2] = target: Geranylgeranyl transferase type I (Homo sapiens, UniProt P49354+P53609); test: Inhibition of geranylgeranyl transferase I (GGTase-I); format: protein-complex assay
NIH3T3 = test: Inhibition of the post-translational prenylation of Ha-Ras protein in cultured NIH3T3 cells in a protein processing assay; format: functional, cell-based; conditions: Mus musculus
Rat1 [3] = test: Inhibition of v-raf (Raf1a1) transformed RAT1 cell colony size and number in soft agar assay; format: functional; conditions: Rattus norvegicus
Rat1 [4] = test: Inhibition of v-Ha-ras (Ras2B) transformed RAT1 cell colony size and number in soft agar assay; format: functional; conditions: Rattus norvegicus
Rat1 [5] = test: Minimal cytotoxic effect (<10%) in RAT1 cell viability assay; format: functional, Rattus norvegicus

| SMILES | IC50 [1] [µM] | IC50 [2] [µM] | IC50 (NIH3T3) [µM] | MIC (Rat1 [3]) [µM] | MIC (Rat1 [4]) [µM] | CTE (Rat1 [5]) |
| --- | --- | --- | --- | --- | --- | --- |
| CSCC[C@H](NC(=O)c1cccc(CN(Cc2ccc(C#N)cc2)Cc2cnc[nH]2)c1)C(=O)O | 0.012 | 6.2 | – | – | – | – |
| COC(=O)[C@H](CCSC)NC(=O)c1cccc(CN(Cc2ccc(C#N)cc2)Cc2cncn2Cc2ccc(C#N)cc2)c1 | – | – | ~5 | > 10 | ≤ 1 | 25 µM |
| CSCC[C@H](NC(=O)c1cccc(CN(Cc2cnc[nH]2)Cc2cnc[nH]2)c1)C(=O)O | 0.87 | 17 | – | – | – | – |
| CCCCN(Cc1cccc(C(=O)N[C@@H](CCSC)C(=O)OC)c1)Cc1cncn1Cc1ccc(C#N)cc1 | – | – | – | > 10 | > 10 | 25 µM |
| COC(=O)[C@H](CCSC)NC(=O)c1cccc(CN(Cc2ccc(C#N)cc2)Cc2c[nH]cn2)c1 | – | – | – | > 10 | 10 (≈ 4.92 µg/mL) | >=50 uM |
| COC(=O)[C@H](CCSC)NC(=O)c1cccc(CNCc2cncn2Cc2ccc(C#N)cc2)c1 | – | – | – | > 10 | 10 (≈ 4.92 µg/mL) | 25 µM |
